According to paper PMC3388857, “Synthesis and antiviral activities of spacer-linked 1-thioglucuronide analogues of glycyrrhizin” (Beilstein Journal of Organic Chemistry, 2012):

Columns and labels:
MDCK cells = conditions: uninfected MDCK cells, 3.1 µM to 250 µM, 48 h
in vitro = conditions: dog, CC50 (cytotoxic concentration 50%), compound-treated uninfected MDCK cells, 48 h, cell viability
influenza A H3N2 virus = assay: Antiviral activity in influenza A virus-infected MDCK cells (prevention of virus-induced cytopathicity, CellTiter-Glo, 48 h); format: cell-based, influenza A virus A/Aichi/2/68 (H3N2); conditions: for antiviral activity (in words): influenza A H3N2-infected MDCK cells, up to 250 µM; for IC50: Influenza A virus, H3N2, MDCK, 48 h, MDCK cells infected with influenza A H3N2, MOI 0.05, compound added with virus, read-out: IC50 (half-maximal inhibitory concentration, antiviral activity); for fold more active compared to GL: ratio of antiviral IC50 values versus lead compound GL
Experimental: For biological testing the compounds were dissolved in DMSO and diluted in cell culture medium to a maximum final DMSO concentration of 1%. For determination of the cytotoxicity of the compounds, MDCK cells were treated with compound concentrations ranging from 3.1 µM to 250 µM for 48 h and then cell viability was determined as a surrogate endpoint for cytotoxicity. […] GL was not toxic at 2500 µM (Table 1). The antiviral activity of the compounds was determined by infecting MDCK cells with influenza A H3N2 virus and treating them with different concentrations of compounds at the same time. […] Compound 16 containing only the N-succinyl substituent is a close analogue to CBX bearing an amide instead of the ester group. […] This was further supported by the data obtained with compound 23 containing a 1-thioethyl-linked glucuronic acid residue at position 3 of 1,2-dehydro-glycyrrhetinic acid.
The influenza A virus (IAV) was obtained from American Tissue Culture Collection (A/Aichi/2/68 (H3N2); VR-547). Virus stocks were prepared by propagation of virus on Mardin-Darby canine kidney (MDCK; ATCC CCL-34) cells and infectious titers of virus stocks were determined by the 50% tissue culture infective dose (TCID50) analysis as described in [5].
MDCK cells were seeded in 96-well plates at 2×10^4 cells/well using DMEM/Ham’s F-12 (1:1) medium containing 10% foetal bovine serum (FBS), 2 mM L-glutamine and 1% antibiotic– antimycotic solution (penicillin, 10.000 units/mL; streptomycin, sulfate 10 mg/mL; Amphotericin B, 25 µg/ml) (all from PAA). Until infection the cells were incubated for 5 h at 37 °C/5.0% CO2 to form a ~80% confluent monolayer on the bottom of the well. Test compounds were dissolved in DMSO and dilution series were prepared in infection medium (DMEM/Ham’s F-12 (1:1) containing 5 µg/mL trypsin (Sigma T4945), and 1% antibiotic–antimycotic solution) resulting in a final plate well DMSO concentration of 1%. The virus stock was generally diluted in infection medium (DMEM/Ham’s F-12 (1:1) containing 5 µg/mL trypsin, 1% DMSO, and 1% antibiotics) to a theoretical multiplicity of infection (MOI) of 0.05. After removal of the culture medium and one washing step with PBS, the virus and compound solution were added together to the cells. In the wells used for cytotoxicity determination (uninfected cells), the virus suspension was replaced by infection medium. Each treatment was conducted in two replicates. After incubation at 37 °C, […]
formation, or other notable abnormalities. Then, cell viability was determined by using CellTiter-Glo luminescent cell viability assay (Promega). The supernatant was removed carefully and 65 µL of the reconstituted reagent was added to each well and incubated for 15 min at room temperature under gentle shaking. Then, 60 µL of the solution was transferred to an opaque plate and luminescence (RLU) was measured by using a Synergy HT plate reader (Biotek). The […]
compounds were titrated on virus-infected MDCK cells and the response (RLU) was used to determine the IC50 value by using a 4-parameter logistic equation (GraphPad Prism) whereby the top and bottom of the curve were defined by the response (RLU) of untreated uninfected cells and untreated infected cells, respectively. The cytotoxicity of the compounds was determined by titration on uninfected MDCK cells, and the response (RLU) was used to determine the CC50 value by using a 4-parameter logistic equation whereby the top of the curve was defined by the response (RLU) of untreated uninfected cells. […]

Structure (SMILES)	cytotoxicity (in words) (MDCK cells)	CC50 (in vitro)	antiviral activity (in words) (influenza A H3N2 virus)	IC50 (influenza A H3N2 virus)	fold more active compared to GL (influenza A H3N2 virus)
CC1(C)[C@@H](OC(=O)CCC(=O)O)CC[C@]2(C)[C@H]3C(=O)C=C4[C@@H]5C[C@@](C)(C(=O)O)CC[C@]5(C)CC[C@@]4(C)[C@]3(C)CC[C@@H]12 [CBX, carbenoxolone, reference compound]	toxic at low concentrations	17.8 ± 2.3 µM	did not show any antiviral activity at nontoxic concentrations	–	–
COC(=O)[C@H]1O[C@@H](SCCN[C@H]2CC[C@@]3(C)C(CC[C@]4(C)C3C(=O)C=C3[C@@H]5C[C@@](C)(C(=O)O)CC[C@]5(C)CC[C@]34C)C2(C)C)[C@H](O)[C@@H](O)[C@@H]1O (some centres unmarked) [Compound 12]	–	> 250 µM	–	220 ± 41 µM	4.7 fold
CC1(C)C2CC[C@]3(C)C(C(=O)C=C4[C@@H]5C[C@@](C)(C(=O)O)CC[C@]5(C)CC[C@]43C)[C@@]2(C)CC[C@@H]1NCCS[C@@H]1O[C@H](C(=O)O)[C@@H](O)[C@H](O)[C@H]1O (some centres unmarked) [Compound 13]	–	> 250 µM	–	> 250 µM	–
COC(=O)[C@H]1O[C@@H](SCCN(C(C)=O)[C@H]2CC[C@@]3(C)C(CC[C@]4(C)C3C(=O)C=C3[C@@H]5C[C@@](C)(C(=O)O)CC[C@]5(C)CC[C@]34C)C2(C)C)[C@H](O)[C@@H](O)[C@@H]1O (some centres unmarked) [Compound 14]	–	–	–	72.1 µM	approximately 14 fold
CC(=O)N(CCS[C@@H]1O[C@H](C(=O)O)[C@@H](O)[C@H](O)[C@H]1O)[C@H]1CC[C@@]2(C)C(CC[C@]3(C)C2C(=O)C=C2[C@@H]4C[C@@](C)(C(=O)O)CC[C@]4(C)CC[C@]23C)C1(C)C (some centres unmarked) [Compound 15]	–	> 250 µM	IC50 value in the same range as the methyl ester 14	87 ± 7.9 µM	–
CC1(C)C2CC[C@]3(C)C(C(=O)C=C4[C@@H]5C[C@@](C)(C(=O)O)CC[C@]5(C)CC[C@]43C)[C@@]2(C)CC[C@@H]1NC(=O)CCC(=O)O (some centres unmarked) [Compound 16, reference compound]	not toxic	> 250 µM	inactive	> 250 µM	–
COC(=O)CCC(=O)N(CCS[C@@H]1O[C@H](C(=O)OC)[C@@H](O)[C@H](O)[C@H]1O)[C@H]1CC[C@@]2(C)C(CC[C@]3(C)C2C(=O)C=C2[C@@H]4C[C@@](C)(C(=O)O)CC[C@]4(C)CC[C@]23C)C1(C)C (some centres unmarked) [Compound 18]	–	> 250 µM	–	125 ± 15.9 µM	8 fold
CC1(C)C2CC[C@]3(C)C(C(=O)C=C4[C@@H]5C[C@@](C)(C(=O)O)CC[C@]5(C)CC[C@]43C)[C@@]2(C)CC[C@@H]1N(CCS[C@@H]1O[C@H](C(=O)O)[C@@H](O)[C@H](O)[C@H]1O)C(=O)CCC(=O)O (some centres unmarked) [Compound 19]	–	> 250 µM	–	> 250 µM	–
CC1(C)C(SCCS[C@@H]2O[C@H](C(=O)O)[C@@H](O)[C@H](O)[C@H]2O)C=C[C@@]2(C)C1CC[C@]1(C)C2C(=O)C=C2[C@@H]3C[C@@](C)(C(=O)O)CC[C@]3(C)CC[C@]21C (some centres unmarked) [Compound 23]	no cytotoxicity at the concentrations tested	> 250 µM	–	54 ± 13 µM	–
CC1(C)[C@@H](O)CC[C@]2(C)[C@H]3C(=O)C=C4[C@@H]5C[C@@](C)(C(=O)O)CC[C@]5(C)CC[C@@]4(C)[C@]3(C)CC[C@@H]12 [GA, glycyrrhetinic acid, reference compound]	–	7.4 ± 0.05 µM	did not show any antiviral activity at nontoxic concentrations	–	–
CC1(C)[C@@H](O[C@H]2O[C@H](C(=O)O)[C@@H](O)[C@H](O)[C@H]2O[C@@H]2O[C@H](C(=O)O)[C@@H](O)[C@H](O)[C@H]2O)CC[C@]2(C)[C@H]3C(=O)C=C4[C@@H]5C[C@@](C)(C(=O)O)CC[C@]5(C)CC[C@@]4(C)[C@]3(C)CC[C@@H]12 [GL, glycyrrhizin]	–	> 2500 µM	–	1030 ± 181 µM	–
